Data taken from patent US20070128589A1, “Substrates, sensors, and methods for assessing conditions in females” (priority 2005, published 2007).
No end group written: not given here.

Experiments:
[1] = tested on: proteases produced by Trichomonas vaginalis; experiment: High throughput screening of GFP-random peptide fusion library with Trichomonas vaginalis cell-free growth medium; format: biochemical; conditions: 4,900 clones screened, LYI entamoeba medium
Description: Peptide substrates for proteases produced by the vaginal pathogen Trichomonas vaginalis were also identified. This microbe was grown in LYI entamoeba medium overnight and the cell-free growth medium was used in the high throughput screening of 4,900 clones from a GFP-random peptide fusion library.
Peptides 39H9 and 42D3 were altered to remove the lysine residues prior to peptide synthesis. The peptides were conjugated to HRP and affigel 10 beads and produced a visible color signal in five minutes at 650 nm when an aliquot of the protease-treated product was incubated with tetramethyl benzidine.

[2] = tested on: C. albicans; experiment: Identification of peptide targets for C. albicans; format: biochemical, Candida albicans
Description: Clones of green fluorescent protein (GFP) tagged conjugates were used to identify targets in a high throughput screen. Each clone contained a plasmid harboring a gene that contains a polyhistidine tag (6 his), 30 random nucleotides (corresponding to 10 random amino acids), and green fluorescent protein (GFP). On the day before a screen, 864 glowing clones are grown up overnight at 37° C. in deep well microtiter plates (1 ml/well). In the morning, the cultures can be induced with 1 mM IPTG for 1 hour, the cells can be centrifuged for five minutes, and then the media can be decanted. Lysozyme (2 mg/ml) can be added and the cells can be flash frozen 3 times. The samples can be treated with 100 ul/well of DNAse I at 37° C. for 30 minutes to reduce the viscosity by digesting the DNA. An aliquot of the sample can then be transferred to a microtiter filter plate containing 10 μl of nickel-NTA resin. The pipeting of the reagents (IPTG, lysozyme, DNAse I, and beads) can be performed with a Tecan Genesis RSP 100 Robot with Gemini version 4.0 software.
(§1) The plates can be filtered by centrifugation three times with PBS to remove unbound material and then the GFP-peptide-bound bead can be incubated with microbial extract for 20 min at 37° C. The sample can be filtered and the flow through fluorescence can be compared with the background from the prior wash. If the microbe has a protease that finds the ideal target, then the release of GFP fluorescence from the bead can be over 100 times greater than the background.
(SEQ ID NO: 8), the sequence QKTTIKKLKH (H2) (SEQ ID NO: 9), the sequence KPKAFLKVGN (R8) (SEQ ID NO: 6), the sequence TPIQIHTILH (SEQ ID NO: 10), the sequence […] (SEQ ID NO: 11), the sequence […] (SEQ ID NO: 12), and the sequence […] (SEQ ID NO: 13).

[3] = tested on: Lactobacillus sp. protease; experiment: GFP-random amino acid sequence-polyhistidine peptide library screen, GFP-peptide released from beads by Lactobacillus supernatant; format: biochemical, Lactobacillus acidophilus; conditions: plate number 69, exposed to Lactobacillus, FIG. 9
Description: (§2) The samples were then incubated with beads that bind the epitope tag (e.g., 10 μl of NTA-resin to bind a polyhistidine tag or 10 μl of methotrexate agarose to bind the FolA tag). The sample was then placed into a microtiter filtration plate and washed three times to remove the unbound proteins. The fluorescent signal of the third wash was measured in a fluorescent microplate reader at an excitation of 355 nm and an emission of 510 nm (for GFP). Alternatively, the HRP activity can be measured in a microplate colorimeter at 405 nm with H2O2 and ABTS substrate. This background reading from the third rinse can later be subtracted from the signal of the released GFP (or HRP) peptides by extracellular bacterial proteases. […]
as §1
(§3) Fluorescence can be measured on a Fluoroskan II instrument with an excitation filter centered at 380 nm and emission filter centered at 538 nm. […]

[4] = tested on: Gardnerella vaginalis, Lactobacillus acidophilus, and Escherichia coli; experiment: HRP-peptide-Affigel conjugates: initial specificity study with other vaginal bacteria; format: biochemical
[5] = tested on: C. albicans clinical isolates; conditions: for reaction with ten clinical C. albicans isolates (released HRP): HRP-peptide-Affigel conjugate, cell-free growth medium, ten minutes, FIG. 24; for sensitivity: all ten clinical isolates
Description: For example, ten clinical C. albicans isolates kindly provided by Dr. Andrew Onderdonk (Brigham and Women's Hospital) were tested alongside a strain obtained from C. albicans ATCC. The yeast cells were grown in YCB-BSA (23.4 g yeast carbon base, 2 g yeast extract, 10 g dextrose, and 5 g of BSA per liter—adjusted to pH 5.0). An aliquot of the cell-free growth medium was mixed with an HRP-peptide-Affigel conjugate for ten minutes and the amount of released HRP was determined.

[6] = tested on: Gardnerella vaginalis; experiment: GFP-random amino acid sequence-polyhistidine peptide library screen with Gardnerella extracts; format: biochemical; conditions: plate 76, FIG. 10
Description: as §2, §1, §3

[7] = tested on: Candida albicans
Description: For example, in one embodiment, the H2 peptide was conjugated to Blue dye #1 as a reporter on the C-terminal end. The N-terminal end was conjugated to Affigel 10 beads (BioRad). The beads were exposed to an aliquot of overnight grown Candida albicans for a period of 24 hours at 37° C. A control set of beads was also exposed to culture medium. Blue dye released from the beads by the action of Candida albicans was collected on a membrane to produce a clear signal.
Food grade sensors can be used in consumer products. […] The resulting beads were incubated with growth medium (1:2 BHI/PBS) alone (control) and an overnight grow-up of Candida albicans for 24 hours at 37° C. […] The preferred ion exchange membranes to collect the free dye are SB6407 and Biodyne B (Pall Life Sciences, Ann Arbor, Mich. and positively charged PVDF (Millipore)). These membranes have strong positively-charged quaternary ammonium groups.
In one example, dye-conjugated Affigel 10 beads were exposed to Candida albicans supernatant (20 μl of 1:10 dilution of beads) or a medium control (1:2 BHI/PBS) for 24 hours. The color was collected with a positively charged membrane (SB6407) in with the bead reaction.

[8] = molecular target: HSV protein UL26 (Human herpesvirus 1, UniProt P10210); conditions: cited from earlier work
Chain of HSV protein UL26 (P10210 whole entry): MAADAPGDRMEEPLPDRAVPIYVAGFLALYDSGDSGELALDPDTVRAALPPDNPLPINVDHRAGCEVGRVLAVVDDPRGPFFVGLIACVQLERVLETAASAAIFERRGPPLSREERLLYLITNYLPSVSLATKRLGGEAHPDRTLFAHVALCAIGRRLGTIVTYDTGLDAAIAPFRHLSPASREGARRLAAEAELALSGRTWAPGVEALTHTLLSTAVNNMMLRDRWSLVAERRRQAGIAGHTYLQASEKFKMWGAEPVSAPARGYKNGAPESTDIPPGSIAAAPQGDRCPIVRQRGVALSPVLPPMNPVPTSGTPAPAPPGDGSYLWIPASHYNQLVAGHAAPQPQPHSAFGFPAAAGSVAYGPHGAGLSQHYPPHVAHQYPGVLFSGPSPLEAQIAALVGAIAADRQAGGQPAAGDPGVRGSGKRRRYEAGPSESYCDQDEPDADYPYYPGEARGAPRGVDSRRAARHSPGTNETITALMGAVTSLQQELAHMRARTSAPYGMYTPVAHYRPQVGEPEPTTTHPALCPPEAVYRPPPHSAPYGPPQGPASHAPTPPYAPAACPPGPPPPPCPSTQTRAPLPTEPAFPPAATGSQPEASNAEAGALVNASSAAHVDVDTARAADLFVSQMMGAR

Substance | identified as peptide detecting Trichomonas vaginalis [1] | identified as peptide target for C. albicans [2] | other results
NKTNKTKHAY (Peptide Substrate of Trichomonas vaginalis) [42H8/T7, peptide detecting Trichomonas vaginalis] | detect Trichomonas vaginalis | – | –
LYPSQNPVIK (Peptide Substrate of Candida spp.) [peptide target for C. albicans] | – | peptide targets for C. albicans | –
INLSKKQIYP (Peptide Substrate of Candida spp.) [peptide target for C. albicans] | – | peptide targets for C. albicans | –
69/B8 (PFINETYAKFC; Peptide Substrate of Gardnerella vaginalis) | – | – | signal strength (GFP-peptide released from the beads) [3]: 62.8
KPKAFLKVGN (also: histidine tag) [R8] | – | peptide targets for C. albicans | clipping by other vaginal bacteria [4]: not significantly clipped; reaction with ten clinical C. albicans isolates (released HRP) [5]: reacted strongly; sensitivity [5]: 100%
76/C3 (ITTTSSKHEHC; Peptide Substrate of Lactobacillus acidophilus) | – | – | fluorescence after exposure to Gardnerella extracts [6]: strong fluorescence
LHNYVLLRNIL (Peptide Substrate of Trichomonas vaginalis) [38H8/T7, peptide detecting Trichomonas vaginalis] | detect Trichomonas vaginalis | – | –
NNPLPKIQKN (Peptide Substrate of Trichomonas vaginalis) [38H9/T7, peptide detecting Trichomonas vaginalis] | detect Trichomonas vaginalis | – | –
QRTTIRRLRH [modified H2 peptide] | – | – | time to visible blue dye release ([7]; collection of color in a feminine pad): approximately 3 hours
KNPKLQDHYI (Peptide Substrate of Trichomonas vaginalis) [44B5/T7, peptide detecting Trichomonas vaginalis] | detect Trichomonas vaginalis | – | –
QIPKSLHPIT (Peptide Substrate of Trichomonas vaginalis) [42D3/T7, peptide detecting Trichomonas vaginalis] | detect Trichomonas vaginalis | – | –
KPSIKPTPPY (Peptide Substrate of Candida spp.) [peptide target for C. albicans] | – | peptide targets for C. albicans | –
SKQQDIIKKY (Peptide Substrate of Trichomonas vaginalis) [44E6/T7, peptide detecting Trichomonas vaginalis] | detect Trichomonas vaginalis | – | –
QKTTIKKLKH (also: HRP or Blue dye #1 Affigel conjugate) [H2] | – | peptide targets for C. albicans | blue dye released from beads / peptide hydrolysis, color collected on membrane ([7]; overnight grown Candida albicans, 24 hours at 37° C., no signal from control medium): highly visible blue color; clipping by other vaginal bacteria [4]: not significantly clipped; reaction with ten clinical C. albicans isolates (released HRP) [5]: reacted strongly; sensitivity [5]: 100%
ASNAEAGALVNASSAAHVDV | – | – | cleavage site [8]: between the 12th amino acid (alanine) and the 13th amino acid (serine); specificity of UL26 for the sequence [8]: strong specificity
NITKKSTKII (Peptide Substrate of Candida spp.) [peptide target for C. albicans] | – | peptide targets for C. albicans | –
QINKALKQPK (Peptide Substrate of Trichomonas vaginalis) [41El 1/T7, peptide detecting Trichomonas vaginalis] | detect Trichomonas vaginalis | – | –
